Assay results taken from PubChem BioAssay AID256 (DTP/NCI, 2004).
Toxic doses and inconclusive results are not listed. The calls were made as follows: active = survival T/C of 150% or more; inactive = T/C below 125% in these data.

Tested on: CD2F1 mice, L1210 leukemia ip, survival T/C
Test: NCI In Vivo Anticancer Drug Screen. Data for tumor model L1210 Leukemia (intraperitoneal) in CD2F1 (CDF1) mice
Details: higher = longer survival
Method in brief: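 Antitumor effect is scored in animals hosting a serially transplanted tumor. Values compare compound-dosed animals against vehicle-only controls as a simple quotient.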

[1] = endpoint: mean survival time, dose: 100.0 mg/kg/injection, schedule: Q01DX009 (ip), vehicle: saline sonified
[2] = endpoint: mean survival time, dose: 200.0 mg/kg/injection, schedule: Q01DX009 (ip), vehicle: saline sonified
[3] = endpoint: mean survival time, dose: 400.0 mg/kg/injection, schedule: Q01DX009 (ip), vehicle: saline sonified
[4] = endpoint: mean survival time, dose: 100.0 mg/kg/injection, schedule: Q01DX009 (ip), vehicle: saline
[5] = endpoint: mean survival time, dose: 100.0 mg/kg/injection, schedule: Q04DX003 (ip), vehicle: saline
[6] = endpoint: mean survival time, dose: 200.0 mg/kg/injection, schedule: Q01DX009 (ip), vehicle: saline
[7] = endpoint: mean survival time, dose: 200.0 mg/kg/injection, schedule: Q04DX003 (ip), vehicle: saline
[8] = endpoint: mean survival time, dose: 100.0 mg/kg/injection, schedule: Q04DX003 (ip), vehicle: saline with Tween-80
[9] = endpoint: mean survival time, dose: 200.0 mg/kg/injection, schedule: Q04DX003 (ip), vehicle: saline with Tween-80
[10] = endpoint: mean survival time, dose: 400.0 mg/kg/injection, schedule: Q04DX003 (ip), vehicle: saline with Tween-80

Measured: T/C

COc1ccc(C(O)c2ccccc2S(=O)(=O)N(C)C)cc1 (stereo not drawn)
inactive: [1] 105 % of control | [2] 96 % of control | [3] 93 % of control

C=C1[C@@H](O)[C@]2(O)OC[C@@]34[C@H]1[C@@H](OC(=O)C(C)CC)C(=O)O[C@@H]3C[C@H]1C(C)=CC(=O)[C@@H](O)[C@]1(C)[C@@H]24 (stereo partly drawn)
inactive: endpoint: mean survival time, dose: 0.25 mg/kg/injection, schedule: Q01DX009 (ip), vehicle: saline with Tween-80 102 % of control | endpoint: mean survival time, dose: 0.5 mg/kg/injection, schedule: Q01DX009 (ip), vehicle: saline with Tween-80 105 % of control | endpoint: mean survival time, dose: 1.0 mg/kg/injection, schedule: Q01DX009 (ip), vehicle: saline with Tween-80 105 % of control | endpoint: mean survival time, dose: 2.0 mg/kg/injection, schedule: Q01DX009 (ip), vehicle: saline with Tween-80 108 % of control

O=c1[nH]c(=O)n(C2CC(O)C(CO)O2)cc1I (stereo not drawn)
inactive: endpoint: mean survival time, dose: 50.0 mg/kg/injection, schedule: Q01DX007 (ip), vehicle: saline 110 % of control | endpoint: mean survival time, dose: 50.0 mg/kg/injection, schedule: Q01DX009 (ip), vehicle: saline 106 % of control | endpoint: mean survival time, dose: 50.0 mg/kg/injection, schedule: Q03DX003 (ip), vehicle: saline 104 % of control | endpoint: mean survival time, dose: 50.0 mg/kg/injection, schedule: Q04DX003 (ip), vehicle: saline 101 % of control | endpoint: mean survival time, dose: 100.0 mg/kg/injection, schedule: Q01DX007 (ip), vehicle: saline 117 % of control | [4] 108 % of control | endpoint: mean survival time, dose: 100.0 mg/kg/injection, schedule: Q03DX003 (ip), vehicle: saline 107 % of control | [5] 106 % of control | endpoint: mean survival time, dose: 200.0 mg/kg/injection, schedule: Q01DX007 (ip), vehicle: saline 108 % of control | [6] 111 % of control | endpoint: mean survival time, dose: 200.0 mg/kg/injection, schedule: Q03DX003 (ip), vehicle: saline 115 % of control | [7] 106 % of control | endpoint: mean survival time, dose: 500.0 mg/kg/injection, schedule: Q01DX009 (ip), vehicle: saline 107 % of control | endpoint: mean survival time, dose: 1000.0 mg/kg/injection, schedule: Q01DX009 (ip), vehicle: saline 103 % of control

CC(NCCN(C)C)C1CCC2C3CCC4CC(O)CCC4(C)C3CCC12C (stereo not drawn)
inactive: endpoint: mean survival time, dose: 12.5 mg/kg/injection, schedule: Q04DX003 (ip), vehicle: saline with Tween-80 101 % of control | endpoint: mean survival time, dose: 25.0 mg/kg/injection, schedule: Q04DX003 (ip), vehicle: saline with Tween-80 95 % of control | endpoint: mean survival time, dose: 50.0 mg/kg/injection, schedule: Q04DX003 (ip), vehicle: saline with Tween-80 101 % of control

c1ccc(C2Nc3ccccc3NC2c2ccccc2)cc1 (stereo not drawn)
inactive: endpoint: mean survival time, dose: 100.0 mg/kg/injection, schedule: Q01DX001 (ip), vehicle: saline with Tween-80 95 % of control | endpoint: mean survival time, dose: 200.0 mg/kg/injection, schedule: Q01DX001 (ip), vehicle: saline with Tween-80 97 % of control | endpoint: mean survival time, dose: 400.0 mg/kg/injection, schedule: Q01DX001 (ip), vehicle: saline with Tween-80 103 % of control

Cc1ccc(S(=O)(=O)NC(=O)NCCC(C)C)cc1
inactive: [1] 104 % of control | [2] 97 % of control | [3] 98 % of control

Cc1ccc(S(=O)(=O)[n+]2ccccc2)cc1
inactive: [5] 97 % of control | [7] 103 % of control | endpoint: mean survival time, dose: 400.0 mg/kg/injection, schedule: Q04DX003 (ip), vehicle: saline 95 % of control

O=C(CCCCl)Nc1cc([N+](=O)[O-])ccc1OCc1ccccc1
inactive: endpoint: mean survival time, dose: 100.0 mg/kg/injection, schedule: Q01DX001 (ip), vehicle: saline 94 % of control | endpoint: mean survival time, dose: 200.0 mg/kg/injection, schedule: Q01DX001 (ip), vehicle: saline 94 % of control | endpoint: mean survival time, dose: 400.0 mg/kg/injection, schedule: Q01DX001 (ip), vehicle: saline 94 % of control

NCCCc1ccccc1
inactive: [4] 103 % of control | [6] 90 % of control

CCCCOC(=O)/C=C/C(=O)OCCCC
inactive: [8] 102 % of control | [9] 102 % of control | [10] 105 % of control

C1CCC2(CCC34CCCCC3CCCC4)CCCCC2C1 (stereo not drawn)
inactive: [8] 101 % of control | [9] 102 % of control | [10] 102 % of control

NC(=O)c1c[nH]n(C2OC(CO)C(O)C2O)c1=O (stereo not drawn)
inactive: endpoint: median survival time, dose: 49.9 mg/kg/injection, schedule: Q01DX005 (ip), vehicle: saline 100 % of control | endpoint: median survival time, dose: 99.8 mg/kg/injection, schedule: Q01DX005 (ip), vehicle: saline 94 % of control | endpoint: median survival time, dose: 199.6 mg/kg/injection, schedule: Q01DX005 (ip), vehicle: saline 94 % of control

Nc1ccc(CCCCc2nc(N)nc(N)c2-c2ccc(Cl)c(Cl)c2)cc1
inactive: [8] 98 % of control | [9] 100 % of control | [10] 113 % of control

CC1=NC(C#N)=C(C#N)N=C(C)C1
inactive: endpoint: mean survival time, dose: 10.0 mg/kg/injection, schedule: Q04DX003 (ip), vehicle: Klucel (hydroxypropylcellulose) (HPC) 102 % of control | endpoint: mean survival time, dose: 20.0 mg/kg/injection, schedule: Q04DX003 (ip), vehicle: Klucel (hydroxypropylcellulose) (HPC) 98 % of control | endpoint: mean survival time, dose: 40.0 mg/kg/injection, schedule: Q04DX003 (ip), vehicle: Klucel (hydroxypropylcellulose) (HPC) 106 % of control
